Laboratory results taken from US11970509B1, “Water soluble nano-sized imine Ru(III) complex based on 4-aminobenzene sodium sulphonate for biomedical applications” (KING FAISAL UNIVERSITY, priority 2023, dated 2024).
≈ marks a conversion by molar mass, not a printed value. Each block holds one molecule with its values, some of them ahead of it.

What was measured:
[1] = system: Breast cancer cells line; assay: Cytotoxic activity, Sulfo-Rhodamine-B-stain (SRB), breast cancer cell line; details: Homo sapiens, 48 h
[2] = system: Aspergillus flavus; assay: Antifungal activity, well diffusion method, Aspergillus flavus; format: cell-based
Protocol: To evaluate antimicrobial activity, the fungal strain (Aspergillus flavus), was used. These strains cultured in nutrient agar and Muller-Hinton medium. Fluconazole compounds were used as a standard drug for comparison.
Antifungal activities of the prepared water soluble nano-complex were studied against three fungal cultures using well diffusion method. The tested fungi were inoculated in Sabouraud dextrose broth medium (Hi-Media Mumbai) and incubated at 35° C. for 72 h and subsequently a suspension of about 1.60×10^4-6.00×10^4 c.f.u/ml was introduced agar plates and a sterile glass spreader was used for even distribution of the inoculum. The discs measuring 6 mm in diameter were prepared from Whatman No. 1 filter paper and sterilized by dry heat at 140° C. for 1 h. The sterile discs previously soaked in known concentration of the tested compounds were placed in Sabouraud dextrose Agar (SDA) plates. The plates were inverted and incubated at 35° C. for 7 days. The susceptibility was assessed on the basis of diameter of inhibition against albicans and non-albicans strain of fungi.

[3] = system: Escherichia coli(-ve); assay: Antimicrobial activity, agar well diffusion method, E. coli; format: cell-based
Protocol: To evaluate antimicrobial activity, the bacterial strain Escherichia coli(-ve), was used. These strains cultured in nutrient agar and Muller-Hinton medium. Ofloxacin compounds were used as a standard drug for comparison. The susceptibilities of such growth rate of microorganisms were measured in vitro by agar well diffusion method. The tested nano complex was dissolved in dimethylsulfoxide at different concentrations (10 and 20 mg/ml). 1 cm^3 of a 24 h broth culture containing 10^6 CFU/cm^3 was placed in sterile Petri-dishes. Molten nutrient agar (15 cm^3) maintained at 45° C. was then poured into the Petri-dishes and allowed to solidify. Then holes of 6 mm diameter were formed in the agar using a sterile cork borer and these holes were completely filled with the test solutions. The plates were incubated for 24 h at 37° C. After the incubation period, the zone of inhibition of each well was determined by measuring the zones of growth inhibition (mm) against the test microorganisms with zone reader (Hi Antibiotic zone scale). […] The measurements were made in triplicate for each compound and their average values are reported.

Compound: COc1cccc2c1C(=O)c1c(O)c3c(c(O)c1C2=O)C[C@@](O)(C(=O)CO)C[C@@H]3O[C@H]1C[C@H](N)[C@H](O)[C@H](C)O1 [Doxorubicin, reference compound]
IC50 [1]: 4 mg/L (≈ 7.36 µM)

MIC [2]: 1.75 mg/L (≈ 5.71 µM)
Compound: OC(Cn1cncn1)(Cn1cncn1)c1ccc(F)cc1F [Fluconazol, reference compound]
inhibition zone ([2]; well diffusion, 35° C. for 7 days): 28 mm

MIC ([3]; Escherichia coli): 2.5 mg/L (≈ 6.92 µM)
Compound: CC1COc2c(N3CCN(C)CC3)c(F)cc3c(=O)c(C(=O)O)cn1c23 (centres unmarked) [Ofloxacin, reference compound]
inhibition zone ([3]; agar well diffusion, 24 h at 37° C.): 38 mm
